Measurements from patent US20250049029A1, “Agrochemical Compositions” (priority 2021, published 2025).

Experiments:
[1] = Micrographic check for crystals after combining active ingredient with permeable S-metolachlor capsule suspension; assay type: physicochemical
Procedure: During further testing, Composition 2 was made with metribuzin being the only active ingredient (i.e., S-metolachlor and mesotrione were not present). An image, at 50-micron scale bar, is provided at FIG. 4A. To this formulation, the capsule suspension used in Composition 2 was added.
Further testing was done by replacing the metribuzin with sulfentrazone. In these tests sulfentrazone technical (powder, Dv(95)=307 microns) was added to a composition the CS of Composition 2 at a ratio of S-metolachlor:sulfentrazone of 10:0.8, and mixed for 1 hour at 30° C. to provide additional solubilization over room temperature.

[2] = Particle size and wet sieve residue of S-metolachlor CS mixed with sulfentrazone technical; assay type: physicochemical; settings: single component, before mixing
Procedure: Additional testing was done using two jars with S-metolachlor CS of Composition 2 and 8% sulfentrazone technical at a ratio of […]. One was mixed at room temperature and one at 30° C. for 1 hour.

SMILES | metribuzin crystals visible ([1]; Composition 2 made with metribuzin as only active ingredient, after adding the capsule suspension used in Composition 2, FIG. 4B) | sulfentrazone crystals observed ([1]; sulfentrazone technical added to CS of Composition 2, S-metolachlor:sulfentrazone 10:0.8, mixed 1 hour at 30° C., FIG. 5) | Dv(95) ([1]; sulfentrazone technical powder, before addition) | Dv(50) [2] | Dv(95) [2]
CSc1nnc(C(C)(C)C)c(=O)n1N [metribuzin, Metribuzin] | no metribuzin crystals appeared visible |  |  |  | 
Cc1nn(-c2cc(NS(C)(=O)=O)c(Cl)cc2Cl)c(=O)n1C(F)F [sulfentrazone, Sulfentrazone] |  | no sulfentrazone crystals were observed | 307 microns | 30.3 | 307
